Laboratory results reported in US20070049564A1 (Wyeth, priority 2005, published 2007).
In brackets after ≈: the same amount, converted by molar mass. Where two headings read alike, the source gives them in different places.

Tests used:
S. aureus GC 1079 = assay: MIC, broth microdilution; details: Staphylococcus aureus
E. coli GC 1073 = assay: MIC, broth microdilution; details: Escherichia coli
E. coli GC 2271 = assay: MIC, broth microdilution; details: Escherichia coli
E. faecium GC 4556 = assay: MIC, broth microdilution; details: Enterococcus faecium
E. coli GC 3226 = assay: MIC, broth microdilution; details: Escherichia coli
c. albicans GC 3066 = assay: MIC, broth microdilution
E. coli GC 2233 = assay: MIC, broth microdilution; details: Escherichia coli
E. coli GC 2270 = assay: MIC, broth microdilution; details: Escherichia coli
S. aureus GC 6469 = assay: MIC, broth microdilution; details: Staphylococcus aureus
E. coli GC 2235 = assay: MIC, broth microdilution; details: Escherichia coli
E. coli = assay: Range of MIC for E. coli strains; details: Escherichia coli
S. agalactiae GC 4564 = assay: MIC, broth microdilution; details: Streptococcus agalactiae
S. pyogenes GC 4563 = assay: MIC, broth microdilution; details: Streptococcus pyogenes
S. typhimurium GC 2172 = assay: MIC, broth microdilution; details: Salmonella enterica, TYPHIMURIUM
E. faecium GC 2243 = assay: MIC, broth microdilution; details: Enterococcus faecium
Procedure: Antimicrobial susceptibility testing. The in vitro activities of the antibiotics are determined by the broth microdilution method as recommended by the National Committee for Clinical Laboratory Standards (NCCLS) (1). Mueller-Hinton II broth (MHBII)(BBL Cockeysville, Md.) is the medium employed in the testing procedures. Microtiter plates containing serial dilutions of each antimicrobial agent are inoculated with each organism to yield the appropriate density (10^5 CFU/ml) in a 100 μl final volume. The plates are incubated for 18-22 hours at 35° C. in ambient air.
Representative compounds were first incubated in mouse serum for an hour prior to the in vitro testing against a panel of selected gram-positive and gram-negative bacteria strains. All compounds were also pre-incubated in water for an hour prior to testing as control.

E. coli GC 2236 = assay: MIC, broth microdilution; details: Escherichia coli
Staph. = assay: Range of MIC for Staph. strains, including MRSA; details: Staphylococcus aureus, MRSA
S. aureus GC 6335 = assay: MIC, broth microdilution; details: Staphylococcus aureus
E. faecalis GC 4555 = assay: MIC, broth microdilution; details: Enterococcus faecalis
E. faecalis GC 2265 = assay: MIC, broth microdilution; details: Enterococcus faecalis
[1] = 20 h, read-out: Range of MIC, E. coli (Mouse Serum)
[2] = read-out: Range of MIC, E. coli (Water)
[3] = read-out: Range of MIC, Staph (Mouse Serum)

Molecule CCCCN(CC(=O)Nc1cc(N(C)C)c2c(c1O)C(=O)C1=C(O)[C@]3(O)C(=O)C(C(N)=O)=C(O)[C@@H](N(C)C)C3CC1C2)C(=O)OCOC(=O)C(C)C (stereo partly drawn) [Example 1, ({[(2-{[(7S,10aS)-9-(aminocarbonyl)-4,7-bis(dimethylamino)-1,8,10a,11-tetrahydroxy-10,12-dioxo-5,5a,6,6a,7,10,10a,12-octahydrotetracen-2-yl]amino}-2-oxoethyl)(butyl)amino]carbonyl}oxy)methyl 2-methylpropanoate] has an MIC (S. aureus GC 1079; GC1079, S. aureus GC 1079, Mouse Serum pre-incubation) of 2 µg/mL (≈ 2.74 µM), an MIC (S. aureus GC 1079; GC1079, S. aureus GC 1079, Water pre-incubation) of 4 µg/mL (≈ 5.48 µM) and an MIC (E. coli GC 1073; GC1073, E. coli GC 1073, Mouse Serum pre-incubation) of 1 µg/mL (≈ 1.37 µM). For the same molecule, the MIC (E. coli GC 1073; GC1073, E. coli GC 1073, Water pre-incubation) was 32 µg/mL (≈ 43.8 µM), the MIC (E. coli GC 2271; GC2271, E. coli GC 2271, Mouse Serum pre-incubation) was 0.5 µg/mL (≈ 0.685 µM) and the MIC (E. coli GC 2271; GC2271, E. coli GC 2271, Water pre-incubation) was 16 µg/mL (≈ 21.9 µM). For the same molecule, the MIC (E. faecium GC 4556; GC4556, E. faecium GC 4556, Mouse Serum pre-incubation) was 1 µg/mL (≈ 1.37 µM), the MIC (E. faecium GC 4556; GC4556, E. faecium GC 4556, Water pre-incubation) was 4 µg/mL (≈ 5.48 µM) and the MIC (E. coli GC 3226; GC3226, E. coli GC 3226, Mouse Serum pre-incubation) was 1 µg/mL (≈ 1.37 µM). The MIC (E. coli GC 3226; GC3226, E. coli GC 3226, Water pre-incubation) was 32 µg/mL (≈ 43.8 µM), the MIC (c. albicans GC 3066; Candida albicans, GC3066) was > 64 µg/mL and the MIC (c. albicans GC 3066; c. albicans GC 3066, Water pre-incubation) was >64 UG/ML. The MIC (E. coli GC 2233; GC2233, E. coli GC 2233, Mouse Serum pre-incubation) was 1 µg/mL (≈ 1.37 µM), the MIC (E. coli GC 2233; GC2233, E. coli GC 2233, Water pre-incubation) was 16 µg/mL (≈ 21.9 µM) and the MIC (E. coli GC 2270; GC2270, E. coli GC 2270, Mouse Serum pre-incubation) was 0.5 µg/mL (≈ 0.685 µM). The MIC (E. coli GC 2270; GC2270, E. coli GC 2270, Water pre-incubation) was 16 µg/mL (≈ 21.9 µM), the MIC (S. aureus GC 6469; GC6469, S. aureus GC 6469, Mouse Serum pre-incubation) was 2 µg/mL (≈ 2.74 µM) and the MIC (S. aureus GC 6469; GC6469, S. aureus GC 6469, Water pre-incubation) was 8 µg/mL (≈ 11 µM). It also gave an MIC (E. coli GC 2235; GC2235, E. coli GC 2235, Mouse Serum pre-incubation) of 0.5 µg/mL (≈ 0.685 µM), an MIC (E. coli GC 2235; GC2235, E. coli GC 2235, Water pre-incubation) of 16 µg/mL (≈ 21.9 µM) and an MIC (E. coli; [1]) of 0.5 to 1 µg/mL (≈ 0.685 to 1.37 µM). The MIC (E. coli; read-out: Minimum inhibitory concentration (MIC), E. coli (mouse serum)) was 0.5 to 1 µg/mL (≈ 0.685 to 1.37 µM), the MIC (E. coli; read-out: Minimum inhibitory concentration (MIC), E. coli (water)) was 16 to 64 µg/mL (≈ 21.9 to 87.7 µM) and the MIC (E. coli; [2]) was 16 to 64 µg/mL (≈ 21.9 to 87.7 µM). For the same molecule, the MIC (S. agalactiae GC 4564; GC4564, S. agalactiae GC 4564, Mouse Serum pre-incubation) was 0.5 µg/mL (≈ 0.685 µM), the MIC (S. agalactiae GC 4564; GC4564, S. agalactiae GC 4564, Water pre-incubation) was 1 µg/mL (≈ 1.37 µM) and the MIC (S. pyogenes GC 4563; GC4563, S. pyogenes GC 4563, Mouse Serum pre-incubation) was 0.25 µg/mL (≈ 0.343 µM). For the same molecule, the MIC (S. pyogenes GC 4563; GC4563, S. pyogenes GC 4563, Water pre-incubation) was 0.5 µg/mL (≈ 0.685 µM), the MIC (S. typhimurium GC 2172; S. typhimurium GC 2172, Mouse Serum pre-incubation) was 4 µg/mL (≈ 5.48 µM) and the MIC (S. typhimurium GC 2172; S. typhimurium GC 2172, Water pre-incubation) was > 64 µg/mL. The MIC (E. faecium GC 2243; GC2243, E. faecium GC 2243, Mouse Serum pre-incubation) was 1 µg/mL (≈ 1.37 µM), the MIC (E. faecium GC 2243; GC2243, E. faecium GC 2243, Water pre-incubation) was 2 µg/mL (≈ 2.74 µM) and the MIC (E. coli GC 2236; GC2236, E. coli GC 2236, Mouse Serum pre-incubation) was 1 µg/mL (≈ 1.37 µM). For the same molecule, the MIC (E. coli GC 2236; GC2236, E. coli GC 2236, Water pre-incubation) was 16 µg/mL (≈ 21.9 µM), the MIC (Staph.; read-out: Minimum inhibitory concentration (MIC), Staph. (mouse serum)) was 1 to 4 µg/mL (≈ 1.37 to 5.48 µM) and the MIC (Staph.; read-out: Minimum inhibitory concentration (MIC), Staph. (water)) was 1 to 8 µg/mL (≈ 1.37 to 11 µM). It also gave an MIC (Staph.; [3]) of 1 to 4 µg/mL (≈ 1.37 to 5.48 µM), an MIC (Staph.; read-out: Range of MIC, Staph (Water)) of 1 to 8 µg/mL (≈ 1.37 to 11 µM) and an MIC (S. aureus GC 6335; GC6335, S. aureus GC 6335, Mouse Serum pre-incubation) of 2 µg/mL (≈ 2.74 µM). For the same molecule, the MIC (S. aureus GC 6335; GC6335, S. aureus GC 6335, Water pre-incubation) was 4 µg/mL (≈ 5.48 µM), the MIC (E. faecalis GC 4555; GC4555, E. faecalis GC 4555, Mouse Serum pre-incubation) was 1 µg/mL (≈ 1.37 µM) and the MIC (E. faecalis GC 4555; GC4555, E. faecalis GC 4555, Water pre-incubation) was 4 µg/mL (≈ 5.48 µM). For the same molecule, the MIC (E. faecalis GC 2265; GC2265, E. faecalis GC 2265, Mouse Serum pre-incubation) was 1 µg/mL (≈ 1.37 µM) and the MIC (E. faecalis GC 2265; GC2265, E. faecalis GC 2265, Water pre-incubation) was 4 µg/mL (≈ 5.48 µM).
CCCN(CC(=O)Nc1cc(N(C)C)c2c(c1O)C(=O)C1=C(O)[C@]3(O)C(=O)C(C(N)=O)=C(O)C(N(C)C)C3CC1C2)C(=O)OCc1oc(=O)oc1-c1ccccc1 (stereo in doubt) [Example 110, (2-oxo-5-phenyl-1,3-dioxol-4-yl)methyl 2-{[(7R,10aS)-9-(aminocarbonyl)-4,7-bis(dimethylamino)-1,8,10a,11-tetrahydroxy-10,12-dioxo-5,5a,6,6a,7,10,10a,12-octahydrotetracen-2-yl]amino}-2-oxoethyl(propyl)carbamate] showed an MIC (S. aureus GC 1079; GC1079, pre-incubation in mouse serum) of 16 µg/mL (≈ 20.3 µM), an MIC (S. aureus GC 1079; GC1079, pre-incubation in water) of 16 µg/mL (≈ 20.3 µM) and an MIC (E. coli GC 1073; GC1073, pre-incubation in mouse serum) of 2 µg/mL (≈ 2.53 µM). It also gave an MIC (E. coli GC 1073; GC1073, pre-incubation in water) of 8 µg/mL (≈ 10.1 µM), an MIC (E. coli GC 2271; GC2271, pre-incubation in mouse serum) of 1 µg/mL (≈ 1.27 µM) and an MIC (E. coli GC 2271; GC2271, pre-incubation in water) of 2 µg/mL (≈ 2.53 µM). It also gave an MIC (E. faecium GC 4556; GC4556, pre-incubation in mouse serum) of 1 µg/mL (≈ 1.27 µM), an MIC (E. faecium GC 4556; GC4556, pre-incubation in water) of 2 µg/mL (≈ 2.53 µM) and an MIC (E. coli GC 3226; GC3226, pre-incubation in mouse serum) of 2 µg/mL (≈ 2.53 µM). For the same molecule, the MIC (E. coli GC 3226; GC3226, pre-incubation in water) was 4 µg/mL (≈ 5.06 µM), the MIC (c. albicans GC 3066; Candida albicans, GC3066) was > 64 µg/mL and the MIC (c. albicans GC 3066; pre-incubation in water) was >64 UG/ML. It also gave an MIC (E. coli GC 2233; GC2233, pre-incubation in mouse serum) of 0.5 µg/mL (≈ 0.633 µM), an MIC (E. coli GC 2233; GC2233, pre-incubation in water) of 1 µg/mL (≈ 1.27 µM) and an MIC (E. coli GC 2270; GC2270, pre-incubation in mouse serum) of 1 µg/mL (≈ 1.27 µM). For the same molecule, the MIC (E. coli GC 2270; GC2270, pre-incubation in water) was 1 µg/mL (≈ 1.27 µM), the MIC (S. aureus GC 6469; GC6469, pre-incubation in mouse serum) was 32 µg/mL (≈ 40.5 µM) and the MIC (S. aureus GC 6469; GC6469, pre-incubation in water) was 32 µg/mL (≈ 40.5 µM). For the same molecule, the MIC (E. coli GC 2235; GC2235, pre-incubation in mouse serum) was 0.5 µg/mL (≈ 0.633 µM), the MIC (E. coli GC 2235; GC2235, pre-incubation in water) was 1 µg/mL (≈ 1.27 µM) and the MIC (E. coli; [1]) was 0.5 to 4 µg/mL (≈ 0.633 to 5.06 µM). For the same molecule, the MIC (E. coli; [2]) was 1 to 8 µg/mL (≈ 1.27 to 10.1 µM), the MIC (S. agalactiae GC 4564; GC4564, pre-incubation in mouse serum) was 0.25 µg/mL (≈ 0.317 µM) and the MIC (S. agalactiae GC 4564; GC4564, pre-incubation in water) was 0.25 µg/mL (≈ 0.317 µM). For the same molecule, the MIC (S. pyogenes GC 4563; GC4563, pre-incubation in mouse serum) was 0.12 µg/mL (≈ 0.152 µM), the MIC (S. pyogenes GC 4563; GC4563, pre-incubation in water) was < 0.06 µg/mL and the MIC (S. typhimurium GC 2172; pre-incubation in mouse serum) was 64 µg/mL (≈ 81 µM). The MIC (S. typhimurium GC 2172; pre-incubation in water) was > 64 µg/mL, the MIC (E. faecium GC 2243; GC2243, pre-incubation in mouse serum) was 0.5 µg/mL (≈ 0.633 µM) and the MIC (E. faecium GC 2243; GC2243, pre-incubation in water) was 0.5 µg/mL (≈ 0.633 µM). For the same molecule, the MIC (E. coli GC 2236; GC2236, pre-incubation in mouse serum) was 1 µg/mL (≈ 1.27 µM), the MIC (E. coli GC 2236; GC2236, pre-incubation in water) was 2 µg/mL (≈ 2.53 µM) and the MIC (Staph.; [3]) was 1 to 32 µg/mL (≈ 1.27 to 40.5 µM). It also gave an MIC (S. aureus GC 6335; GC6335, pre-incubation in mouse serum) of 8 µg/mL (≈ 10.1 µM), an MIC (S. aureus GC 6335; GC6335, pre-incubation in water) of 8 µg/mL (≈ 10.1 µM) and an MIC (E. faecalis GC 4555; GC4555, pre-incubation in mouse serum) of 1 µg/mL (≈ 1.27 µM). The MIC (E. faecalis GC 4555; GC4555, pre-incubation in water) was 2 µg/mL (≈ 2.53 µM), the MIC (E. faecalis GC 2265; GC2265, pre-incubation in mouse serum) was 8 µg/mL (≈ 10.1 µM) and the MIC (E. faecalis GC 2265; GC2265, pre-incubation in water) was 4 µg/mL (≈ 5.06 µM).
